ChEMBL document CHEMBL3217454, “Structureactivity relationship studies using peptide arrays: the example of HIV-1 Revintegrase interaction” (Medchemcomm, 2013)
Square brackets hold non-standard residues; d marks the D form. Peptide text beside a SMILES is read from it. NMeF = CN[C@@H](Cc1ccccc1)C(=O)O; NMeT = CN[C@H](C(=O)O)[C@@H](C)O; NMeV = CN[C@H](C(=O)O)C(C)C; NMeS = CN[C@@H](CO)C(=O)O; NMeA = CN[C@@H](C)C(=O)O; Sar = CNCC(=O)O

What was measured:
[1] = system: Human immunodeficiency virus 1; assay: Binding affinity to HLT-tagged HIV-1 Rev measured after overnight incubation by chemiluminescence analysis relative to IN 118-128; design: concentration or dose not given beside the values
[2] = target: Human immunodeficiency virus type 1 integrase (Human immunodeficiency virus 1) (UniProt Q7ZJM1); assay: Binding affinity to HIV-1 integrase measured after overnight incubation by chemiluminescence analysis relative to IN 118-128; design: concentration or dose not given beside the values
Human immunodeficiency virus type 1 integrase (Human immunodeficiency virus 1), sequence (Q7ZJM1 as listed by the source): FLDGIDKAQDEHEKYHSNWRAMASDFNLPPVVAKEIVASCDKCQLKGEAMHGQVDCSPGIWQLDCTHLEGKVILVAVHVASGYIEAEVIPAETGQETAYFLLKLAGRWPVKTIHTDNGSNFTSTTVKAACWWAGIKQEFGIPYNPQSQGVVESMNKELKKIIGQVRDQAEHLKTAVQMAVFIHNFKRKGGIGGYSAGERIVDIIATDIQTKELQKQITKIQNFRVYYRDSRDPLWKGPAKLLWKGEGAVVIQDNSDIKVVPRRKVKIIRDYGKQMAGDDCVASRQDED

Row | SMILES | Activity [1] [%] | Activity [2] [%]
1 | CC(C)[C@H](NC(=O)[C@@H](NC(=O)[C@@H](NC(=O)[C@H](CO)NC(=O)[C@@H](NC(=O)[C@H](Cc1ccccc1)NC(=O)[C@H](CC(N)=O)NC(=O)[C@H](CO)NC(=O)CN)[C@@H](C)O)[C@@H](C)O)[C@@H](C)O)C(=O)N[C@@H](CCCCN)C(=O)N[C@H](C)C(=O)O | 137 | 136
2 | CC(C)[C@H](NC(=O)[C@@H](NC(=O)[C@@H](NC(=O)[C@H](CO)NC(=O)[C@@H](NC(=O)[C@H](Cc1ccccc1)NC(=O)[C@H](CC(N)=O)NC(=O)[C@H](CO)NC(=O)CN)[C@@H](C)O)[C@@H](C)O)[C@@H](C)O)C(=O)N[C@@H](CCCCN)C(=O)O (H-GSNFTSTTVK-OH) | 201 | 242
3 | CC(C)[C@H](NC(=O)[C@@H](NC(=O)[C@@H](NC(=O)[C@H](CO)NC(=O)[C@@H](NC(=O)[C@H](Cc1ccccc1)NC(=O)[C@H](CC(N)=O)NC(=O)[C@H](CO)NC(=O)CN)[C@@H](C)O)[C@@H](C)O)[C@@H](C)O)C(=O)N[C@H](CCCCN)C(=O)N[C@@H](C)C(=O)O | 53 | 109
4 | CC(C)[C@H](NC(=O)[C@@H](NC(=O)[C@@H](NC(=O)[C@H](CO)NC(=O)[C@@H](NC(=O)[C@@H](Cc1ccccc1)NC(=O)[C@H](CC(N)=O)NC(=O)[C@H](CO)NC(=O)CN)[C@@H](C)O)[C@@H](C)O)[C@@H](C)O)C(=O)N[C@@H](CCCCN)C(=O)N[C@@H](C)C(=O)O | 211 | 229
5 | CC(C)[C@H](NC(=O)[C@@H](NC(=O)[C@@H](NC(=O)[C@H](CO)NC(=O)[C@@H](NC(=O)[C@H](Cc1ccccc1)N(C)C(=O)[C@H](CC(N)=O)NC(=O)[C@H](CO)NC(=O)CN)[C@@H](C)O)[C@@H](C)O)[C@@H](C)O)C(=O)N[C@@H](CCCCN)C(=O)N[C@@H](C)C(=O)O (H-GSN[NMeF]TSTTVKA-OH) | 177 | 195
6 | CC(C)[C@H](NC(=O)[C@@H](NC(=O)[C@@H](NC(=O)[C@H](CO)NC(=O)[C@H](C)NC(=O)[C@H](Cc1ccccc1)NC(=O)[C@H](CC(N)=O)NC(=O)[C@H](CO)NC(=O)CN)[C@@H](C)O)[C@@H](C)O)C(=O)N[C@@H](CCCCN)C(=O)N[C@@H](C)C(=O)O (H-GSNFASTTVKA-OH) | 120 | 228
7 | CC(C)[C@H](NC(=O)[C@@H](NC(=O)[C@@H](NC(=O)[C@H](CO)NC(=O)[C@@H](NC(=O)[C@H](Cc1ccccc1)NC(=O)[C@H](CC(N)=O)NC(=O)[C@@H](N)CO)[C@@H](C)O)[C@@H](C)O)[C@@H](C)O)C(=O)N[C@@H](CCCCN)C(=O)N[C@@H](C)C(=O)O (H-SNFTSTTVKA-OH) | 177 | 207
8 | CC(C)[C@H](NC(=O)[C@@H](NC(=O)[C@@H](NC(=O)[C@H](CO)NC(=O)[C@@H](NC(=O)[C@H](Cc1ccccc1)NC(=O)[C@H](CC(N)=O)NC(=O)[C@H](CO)N(C)C(=O)CN)[C@@H](C)O)[C@@H](C)O)[C@@H](C)O)C(=O)N[C@@H](CCCCN)C(=O)N[C@@H](C)C(=O)O (H-G[NMeS]NFTSTTVKA-OH) | 293 | 182
9 | CC(C)[C@H](NC(=O)[C@@H](NC(=O)[C@@H](NC(=O)[C@H](CO)NC(=O)[C@@H](NC(=O)[C@H](Cc1ccccc1)NC(=O)[C@H](C)NC(=O)[C@H](CO)NC(=O)CN)[C@@H](C)O)[C@@H](C)O)[C@@H](C)O)C(=O)N[C@@H](CCCCN)C(=O)N[C@@H](C)C(=O)O (H-GSAFTSTTVKA-OH) | 151 | 198
10 | CC(C)[C@H](NC(=O)[C@H](NC(=O)[C@@H](NC(=O)[C@H](CO)NC(=O)[C@@H](NC(=O)[C@H](Cc1ccccc1)NC(=O)[C@H](CC(N)=O)NC(=O)[C@H](CO)NC(=O)CN)[C@@H](C)O)[C@@H](C)O)[C@@H](C)O)C(=O)N[C@@H](CCCCN)C(=O)N[C@@H](C)C(=O)O | 60 | 85
11 | CC(C)[C@H](NC(=O)[C@@H](NC(=O)[C@@H](NC(=O)[C@@H](CO)NC(=O)[C@@H](NC(=O)[C@H](Cc1ccccc1)NC(=O)[C@H](CC(N)=O)NC(=O)[C@H](CO)NC(=O)CN)[C@@H](C)O)[C@@H](C)O)[C@@H](C)O)C(=O)N[C@@H](CCCCN)C(=O)N[C@@H](C)C(=O)O | 124 | 92
12 | C[C@@H](O)[C@H](NC(=O)[C@@H](NC(=O)[C@H](CO)NC(=O)[C@@H](NC(=O)[C@H](Cc1ccccc1)NC(=O)[C@H](CC(N)=O)NC(=O)[C@H](CO)NC(=O)CN)[C@@H](C)O)[C@@H](C)O)C(=O)O (H-GSNFTSTT-OH) | 0 | 19
13 | CNCC(=O)N[C@@H](CO)C(=O)N[C@@H](CC(N)=O)C(=O)N[C@@H](Cc1ccccc1)C(=O)N[C@H](C(=O)N[C@@H](CO)C(=O)N[C@H](C(=O)N[C@H](C(=O)N[C@H](C(=O)N[C@@H](CCCCN)C(=O)N[C@@H](C)C(=O)O)C(C)C)[C@@H](C)O)[C@@H](C)O)[C@@H](C)O (H-[Sar]SNFTSTTVKA-OH) | 294 | 181
14 | CC(C)[C@H](NC(=O)[C@H]([C@@H](C)O)N(C)C(=O)[C@@H](NC(=O)[C@H](CO)NC(=O)[C@@H](NC(=O)[C@H](Cc1ccccc1)NC(=O)[C@H](CC(N)=O)NC(=O)[C@H](CO)NC(=O)CN)[C@@H](C)O)[C@@H](C)O)C(=O)N[C@@H](CCCCN)C(=O)N[C@@H](C)C(=O)O (H-GSNFTST[NMeT]VKA-OH) | 168 | 265
15 | CC(C)[C@H](NC(=O)[C@@H](NC(=O)[C@@H](NC(=O)[C@H](CO)NC(=O)[C@@H](NC(=O)[C@@H](N)Cc1ccccc1)[C@@H](C)O)[C@@H](C)O)[C@@H](C)O)C(=O)N[C@@H](CCCCN)C(=O)N[C@@H](C)C(=O)O (H-FTSTTVKA-OH) | 280 | 236
16 | CC(C)[C@@H](C(=O)N[C@@H](CCCCN)C(=O)N[C@@H](C)C(=O)O)N(C)C(=O)[C@@H](NC(=O)[C@@H](NC(=O)[C@H](CO)NC(=O)[C@@H](NC(=O)[C@H](Cc1ccccc1)NC(=O)[C@H](CC(N)=O)NC(=O)[C@H](CO)NC(=O)CN)[C@@H](C)O)[C@@H](C)O)[C@@H](C)O (H-GSNFTSTT[NMeV]KA-OH) | 215 | 273
17 | CC(C)[C@H](NC(=O)[C@@H](NC(=O)[C@@H](NC(=O)[C@H](CO)NC(=O)[C@@H](NC(=O)[C@H](Cc1ccccc1)NC(=O)[C@@H](N)CC(N)=O)[C@@H](C)O)[C@@H](C)O)[C@@H](C)O)C(=O)N[C@@H](CCCCN)C(=O)N[C@@H](C)C(=O)O (H-NFTSTTVKA-OH) | 152 | 119
18 | CC(C)[C@H](NC(=O)[C@@H](NC(=O)[C@@H](NC(=O)[C@H](CO)NC(=O)[C@@H](NC(=O)[C@H](C)NC(=O)[C@H](CC(N)=O)NC(=O)[C@H](CO)NC(=O)CN)[C@@H](C)O)[C@@H](C)O)[C@@H](C)O)C(=O)N[C@@H](CCCCN)C(=O)N[C@@H](C)C(=O)O (H-GSNATSTTVKA-OH) | 31 | 133
19 | CC(C)[C@H](NC(=O)[C@@H](NC(=O)[C@@H](NC(=O)[C@@H](N)CO)[C@@H](C)O)[C@@H](C)O)C(=O)N[C@@H](CCCCN)C(=O)N[C@@H](C)C(=O)O (H-STTVKA-OH) | 187 | 144
20 | CC(C)[C@H](NC(=O)[C@@H](NC(=O)[C@@H](NC(=O)[C@H](C)NC(=O)[C@@H](NC(=O)[C@H](Cc1ccccc1)NC(=O)[C@H](CC(N)=O)NC(=O)[C@H](CO)NC(=O)CN)[C@@H](C)O)[C@@H](C)O)[C@@H](C)O)C(=O)N[C@@H](CCCCN)C(=O)N[C@@H](C)C(=O)O (H-GSNFTATTVKA-OH) | 182 | 135
21 | CC(C)[C@H](NC(=O)[C@@H](NC(=O)[C@@H](NC(=O)[C@H](CO)NC(=O)[C@H](NC(=O)[C@H](Cc1ccccc1)NC(=O)[C@H](CC(N)=O)NC(=O)[C@H](CO)NC(=O)CN)[C@@H](C)O)[C@@H](C)O)[C@@H](C)O)C(=O)N[C@@H](CCCCN)C(=O)N[C@@H](C)C(=O)O | 52 | 58
22 | CC(C)[C@H](NC(=O)[C@@H](NC(=O)[C@@H](NC(=O)[C@H](CO)NC(=O)[C@@H](NC(=O)[C@H](Cc1ccccc1)NC(=O)[C@H](CC(N)=O)NC(=O)[C@H](C)NC(=O)CN)[C@@H](C)O)[C@@H](C)O)[C@@H](C)O)C(=O)N[C@@H](CCCCN)C(=O)N[C@@H](C)C(=O)O (H-GANFTSTTVKA-OH) | 146 | 177
23 | CC(C)[C@H](NC(=O)[C@@H](NC(=O)[C@@H](NC(=O)[C@H](CO)NC(=O)[C@@H](NC(=O)[C@H](Cc1ccccc1)NC(=O)[C@H](CC(N)=O)NC(=O)[C@H](CO)NC(=O)CN)[C@@H](C)O)[C@@H](C)O)[C@@H](C)O)C(=O)N[C@@H](CCCCN)C(=O)N(C)[C@@H](C)C(=O)O (H-GSNFTSTTVK[NMeA]-OH) | 141 | 136
24 | CC(C)[C@H](NC(=O)[C@@H](NC(=O)[C@@H](NC(=O)[C@H](CO)NC(=O)[C@@H](NC(=O)[C@H](Cc1ccccc1)NC(=O)[C@H](CC(N)=O)NC(=O)[C@H](CO)NC(=O)CN)[C@@H](C)O)[C@@H](C)O)[C@@H](C)O)C(=O)N[C@@H](C)C(=O)N[C@@H](C)C(=O)O (H-GSNFTSTTVAA-OH) | 0 | 85
25 | CC(C)[C@H](NC(=O)[C@@H](NC(=O)[C@@H](NC(=O)[C@H](CO)NC(=O)[C@@H](NC(=O)[C@H](Cc1ccccc1)NC(=O)[C@H](CC(N)=O)NC(=O)[C@H](CO)NC(=O)CN)[C@@H](C)O)[C@@H](C)O)[C@@H](C)O)C(=O)O (H-GSNFTSTTV-OH) | 0 | 27
26 | CC(C)[C@@H](NC(=O)[C@@H](NC(=O)[C@@H](NC(=O)[C@H](CO)NC(=O)[C@@H](NC(=O)[C@H](Cc1ccccc1)NC(=O)[C@H](CC(N)=O)NC(=O)[C@H](CO)NC(=O)CN)[C@@H](C)O)[C@@H](C)O)[C@@H](C)O)C(=O)N[C@@H](CCCCN)C(=O)N[C@@H](C)C(=O)O | 107 | 97
27 | CC(C)[C@H](NC(=O)[C@@H](NC(=O)[C@@H](NC(=O)[C@H](CO)NC(=O)[C@H]([C@@H](C)O)N(C)C(=O)[C@H](Cc1ccccc1)NC(=O)[C@H](CC(N)=O)NC(=O)[C@H](CO)NC(=O)CN)[C@@H](C)O)[C@@H](C)O)C(=O)N[C@@H](CCCCN)C(=O)N[C@@H](C)C(=O)O (H-GSNF[NMeT]STTVKA-OH) | 200 | 165
